Measured values: patent US20160223554A1, “METHODS FOR DIAGNOSIS, PROGNOSIS AND METHODS OF TREATMENT” (priority 2011, published 2016)

Legend:
AML blasts [1] = assay: SCNP phospho-flow signaling nodes in AML PBMC (Example 2, Study No. 1); format: cell-based, human; conditions: for Mean Value of CRs: CR patients; for Mean Value of CRs / Mean Value of NRs: Study No. 1; for Mean Value of NRs: NR patients
Description: Frozen cells are thawed in a 37° C. water bath and gently resuspended in the vial and transferred to the 15 mL conical tube. The 15 mL tube is centrifuged at 930 RPM (200×g) for 8 minutes at room temperature. The supernatant is aspirated and the pellet is gently resuspended in 1 mL media A. The cell suspension is filtered through a 70 um cell strainer into a new 15 mL tube. The cell strainer is rinsed with 1 mL media A and another 12 ml of media A into the 15 mL tube. The cells are mixed into an even suspension. A 20 μL aliquot is immediately removed into a 96-well plate containing 180 μL PBS+4% FBS+CD45 Alexa 700+PI to determine cell count and viability post spin. After the determination, the 15 mL tubes are centrifuged at 930 RPM (200×g) for 8 minutes at room temperature. The supernatant is aspirated and the cell pellet is gently resuspended in 4 mL PBS+4 μL Amine Aqua and incubated for 15 min in a 37° C. incubator. 10 mL RPMI+1% FBS is added to the cell suspension and the tube is inverted to mix the cells. The 15 mL tubes are centrifuged at 930 RPM (200×g) for 8 minutes at room temperature. The cells are resuspended in Media A at the desired cell concentration (1.25×10^6/mL). For samples with low numbers of cells (<18.5×10^6), the cells are resuspended in up to 15 mL media. For samples with high numbers of cells (>18.5×10^6), the volume is raised to 10 mL with media A and the desired volume is transferred to a new 15 mL tube, and the cell concentration is adjusted to 1.25×10^6 cells/ml. 1.6 mL of the above cell suspension (concentration at 1.25×10^6 cells/ml) is transferred into wells of a multi-well plate. From this plate, 80 ul is dispensed into each well of a subsequent plate. The plates are covered with a lid (Nunc) and placed in a 37° C. incubator for 2 hours to rest.
A concentration for each stimulant that is five folds more (5×) than the final concentration is prepared using Media A as diluent. 5× stimuli are arrayed into wells of a standard 96 well v-bottom plate that correspond to the wells on the plate with cells to be stimulated.
Adding the stimulant: The cell plate(s) are taken out of the incubator and placed in a 37° C. water bath next to the pipette apparatus. The cell plate is taken from the water bath and gently swirled to resuspend any settled cells. With pipettor, the stimulant is dispensed into the cell plate and vortexed at “7” for 5 seconds. The deep well plate is put back into the water bath.
The plate is covered with foil sealer and incubated in a 37° C. water bath for 10 minutes. The plate is spun for 6 minutes at 2000 rpm at room temperature. The cells are aspirated using a 96 well plate aspirator (VP Scientific). The plate is vortexed to resuspend cell pellets in the residual volume. The pellet is ensured to be dispersed before the Methanol step (see cell permeabilization) or clumping will occur.
Cell Permeabilization: Permeability agent, for example methanol, is added slowly and while the plate is vortexing. To do this, the cell plate is placed on titer plate shaker and made sure it is secure. The plate is set to shake using the highest setting. A pipetter is used to add 0.6 mls of 100% methanol to the plate wells. The plate(s) are put on ice until this step has been completed for all plates. Plates are covered with a foil seal using the plate roller to achieve a tight fit. At this stage the plates can be stored at −80° C.
Cells are thawed if frozen. Cells are pelleted at 2000 rpm 5 minutes. Supernatant is aspirated with vacuum aspirator. Plate is vortexed on a “plate vortex” for 5-10 seconds. Cells are washed with 1 mL FACS buffer. Repeat the spin, aspirate and vortex steps as above. 50 μL of FACS/stain buffer with the desired, previously optimized, antibody cocktail is added to two rows of cells at a time and agitate the plate. The plate is covered and incubated in a shaker for 30 minutes at room temperature (RT). During this incubation, the compensation plate is prepared.

AML blasts [2] = assay: SCNP signaling and apoptosis nodes in AML BMMC (Example 4, Study No. 2); format: cell-based, human
[3] = Total Phospho metric, Study No. 1, CRp patient included in NR group
[4] = read-out p-CREB, metric TotalPhospho
[5] = read-out p-Stat3, metric TotalPhospho
[6] = Fold metric, all patients, Study No. 2
[7] = Study No.2, patients less than 60 years old
[8] = Study No.2, patients with De Novo AML
[9] = TotalPhospho metric, all patients, Study No. 2
[10] = read-out p-Plcγ2, metric TotalPhospho
[11] = Study No.2, patients with Secondary AML
[12] = read-out p-Erk, metric TotalPhospho
[13] = Fold metric, Study No. 1, CRp patient included in NR group
[14] = read-out p-S6, metric TotalPhospho
[15] = read-out p-Stat1, metric TotalPhospho
[16] = read-out p-Akt, metric TotalPhospho

## IL-6: cytokine modulator
AML blasts [1]; [3]
  Mean Value of CRs, p-CREB: 1.58
  Mean Value of CRs, p-Stat3: 1.08
  Mean Value of NRs, p-CREB: 2.44
  Mean Value of NRs, p-Stat3: 1.81
AML blasts [1]; [4]
  Mean Value of CRs: 1.70
  Mean Value of NRs: 2.43
AML blasts [1]; [5]
  Mean Value of CRs: 1.08
  Mean Value of NRs: 1.84
AML blasts [2]; [6]
  Mean Value of CRs, p-Stat1: −0.01
  Mean Value of CRs, p-Stat3: 0.12
  Mean Value of CRs, p-Stat5: 0.13
  Mean Value of NRs, p-Stat1: 0.26
  Mean Value of NRs, p-Stat3: 1.09
  Mean Value of NRs, p-Stat5: 0.55
AML blasts [2]; [7]
  Mean Value of CRs, p-Stat1 Fold: −0.02
  Mean Value of CRs, p-Stat3 Fold: 0.13
  Mean Value of CRs, p-Stat3 TotalPhospho: 1.77
  Mean Value of CRs, p-Stat5 Fold: 0.11
  Mean Value of NRs, p-Stat1 Fold: 0.3
  Mean Value of NRs, p-Stat3 Fold: 1.67
  Mean Value of NRs, p-Stat3 TotalPhospho: 4.10
  Mean Value of NRs, p-Stat5 Fold: 0.58
AML blasts [2]; [8]
  Mean Value of CRs, p-Stat1 Fold: 0.00
  Mean Value of CRs, p-Stat1 TotalPhospho: 1.06
  Mean Value of CRs, p-Stat3 TotalPhospho: 1.7
  Mean Value of CRs, p-Stat5 Fold: 0.12
  Mean Value of NRs, p-Stat1 Fold: 0.19
  Mean Value of NRs, p-Stat1 TotalPhospho: 1.67
  Mean Value of NRs, p-Stat3 TotalPhospho: 3.22
  Mean Value of NRs, p-Stat5 Fold: 0.47
AML blasts [2]; [9]
  Mean Value of CRs, p-Stat3: 1.76
  Mean Value of NRs, p-Stat3: 2.98

## CN[C@@H]1C[C@H]2O[C@@](C)([C@@H]1OC)n1c3ccccc3c3c4c(c5c6ccccc6n2c5c31)C(=O)NC4 [Stautospotine]
AML blasts [2]; [7]
  Mean Value of CRs, c-PARP Fold: 3.47
  Mean Value of NRs, c-PARP Fold: 7.06

## IGF-1
AML blasts [1]; [3]
  Mean Value of CRs, p-CREB Alexa488: 1.11
  Mean Value of CRs, p-CREB PE: 1.42
  Mean Value of CRs, p-Plcγ2: 1.82
  Mean Value of NRs, p-CREB Alexa488: 1.62
  Mean Value of NRs, p-CREB PE: 2.29
  Mean Value of NRs, p-Plcγ2: 2.76
AML blasts [1]; [4]
  Mean Value of CRs: 1.52
  Mean Value of NRs: 2.29
AML blasts [1]; [10]
  Mean Value of CRs: 1.91
  Mean Value of NRs: 2.76

## COc1cc([C@@H]2c3cc4c(cc3[C@@H](O[C@@H]3O[C@@H]5CO[C@@H](C)O[C@H]5[C@H](O)[C@H]3O)[C@H]3COC(=O)[C@H]23)OCO4)cc(OC)c1O [Etoposide, reference compound]
AML blasts [2]; [6]
  Mean Value of CRs, c-PARP: 0.79
  Mean Value of NRs, c-PARP: 0.25
AML blasts [2]; [7]
  Mean Value of CRs, p-Chk2−,c-PARP+ Quad: 21.17
  Mean Value of NRs, p-Chk2−,c-PARP+ Quad: 9.58
AML blasts [2]; [11]
  Mean Value of CRs, p-Chk2+,c-PARP− Quad: 20.98
  Mean Value of CRs, p-Chk2−,c-PARP+ Quad: 32.71
  Mean Value of NRs, p-Chk2+,c-PARP− Quad: 55.02
  Mean Value of NRs, p-Chk2−,c-PARP+ Quad: 13.24

## TNFα
AML blasts [1]; [12]
  Mean Value of CRs: 1.25
  Mean Value of NRs: 1.65

## C/C=C(/C)C(=O)O[C@H]1C(C)=C2[C@H]([C@@H]1OC(=O)CCCCCCC)[C@@](C)(OC(C)=O)C[C@H](OC(=O)CCC)[C@@]1(O)[C@H]2OC(=O)[C@@]1(C)O [Thapsigargin, reference compound]
AML blasts [1]; [13]
  Mean Value of CRs, p-S6: 0.03
  Mean Value of NRs, p-S6: 0.31
AML blasts [1]; [3]
  Mean Value of CRs, p-CREB: 1.79
  Mean Value of CRs, p-S6: 0.31
  Mean Value of NRs, p-CREB: 2.77
  Mean Value of NRs, p-S6: 0.67
AML blasts [1]; [4]
  Mean Value of CRs: 1.90
  Mean Value of NRs: 2.76
AML blasts [1]; read-out p-S6, metric Fold
  Mean Value of CRs: 0.04
  Mean Value of NRs: 0.32
AML blasts [1]; [14]
  Mean Value of CRs: 0.31
  Mean Value of NRs: 0.68
AML blasts [2]; [6]
  Mean Value of CRs, p-Erk: 1.22
  Mean Value of NRs, p-Erk: 0.36
AML blasts [2]; [7]
  Mean Value of CRs, p-CREB TotalPhospho: 2.83
  Mean Value of CRs, p-Erk Fold: 1.28
  Mean Value of NRs, p-CREB TotalPhospho: 3.71
  Mean Value of NRs, p-Erk Fold: 0.40
AML blasts [2]; [8]
  Mean Value of CRs, p-Erk Fold: 1.28
  Mean Value of NRs, p-Erk Fold: 0.27

## CCCCCCCCCCCCCC(=O)O[C@@H]1[C@@H](C)[C@@]2(O)[C@@H](C=C(CO)C[C@]3(O)C(=O)C(C)=C[C@@H]23)[C@@H]2C(C)(C)[C@]12OC(C)=O [PMA, reference compound]
AML blasts [1]; [13]
  Mean Value of NRs, p-Erk: 2.03
AML blasts [2]; [6]
  Mean Value of CRs, p-Erk: 2.82
  Mean Value of NRs, p-Erk: 1.74

## EPO
AML blasts [1]; [3]
  Mean Value of CRs, p-Stat1: 0.17
  Mean Value of CRs, p-Stat3: 0.64
  Mean Value of NRs, p-Stat1: 0.42
  Mean Value of NRs, p-Stat3: 1.23
AML blasts [1]; [15]
  Mean Value of CRs: 0.20
  Mean Value of NRs: 0.42
AML blasts [1]; [5]
  Mean Value of CRs: 0.72
  Mean Value of NRs: 1.23

## IL-l0
AML blasts [1]; [3]
  Mean Value of CRs, p-Stat1: 0.17
  Mean Value of NRs, p-Stat1: 0.47

## GM-CSF
AML blasts [1]; [3]
  Mean Value of CRs, p-Stat3: 0.83
  Mean Value of NRs, p-Stat3: 1.23
AML blasts [1]; [5]
  Mean Value of CRs: 0.84
  Mean Value of NRs: 1.24
AML blasts [2]; [7]
  Mean Value of CRs, p-Stat3 TotalPhospho: 1.51
  Mean Value of NRs, p-Stat3 TotalPhospho: 2.35
AML blasts [2]; [8]
  Mean Value of CRs, p-Stat3 TotalPhospho: 1.51
  Mean Value of NRs, p-Stat3 TotalPhospho: 2.22

## SDF -1α
AML blasts [1]; [16]
  Mean Value of CRs: 0.57
  Mean Value of NRs: 1.04

B1: CD40L (protein, UniProt P29965 113-261, looked up)
CD40 ligand, soluble form: MQKGDQNPQIAAHVISEASSKTTSVLQWAEKGYYTMSNNLVTLENGKQLTVKRQGLYYIYAQVTFCSNREASSQAPFIASLCLKSPGRFERILLRAANTHSSAKPCGQQSIHLGGVFELQPGASVFVNVTDPSQVSHGTGFTSFGLLKL
AML blasts [1]; [3]
  Mean Value of CRs, p-CREB: 1.37
  Mean Value of CRs, p-Erk: 1.18
  Mean Value of NRs, p-CREB: 2.67
  Mean Value of NRs, p-Erk: 1.62
AML blasts [1]; [4]
  Mean Value of CRs: 1.55
  Mean Value of NRs: 2.66
AML blasts [1]; [12]
  Mean Value of CRs: 1.18
  Mean Value of NRs: 1.64

B2: M-CSF (protein, UniProt P09603 33-554, looked up)
Macrophage colony-stimulating …: EEVSEYCSHMIGSGHLQSLQRLIDSQMETSCQITFEFVDQEQLKDPVCYLKKAFLLVQDIMEDTMRFRDNTPNAIAIVQLQELSLRLKSCFTKDYEEHDKACVRTFYETPLQLLEKVKNVFNETKNLLDKDWNIFSKNCNNSFAECSSQDVVTKPDCNCLYPKAIPSSDPASVSPHQPLAPSMAPVAGLTWEDSEGTEGSSLLPGEQPLHTVDPGSAKQRPPRSTCQSFEPPETPVVKDSTIGGSPQPRPSVGAFNPGMEDILDSAMGTNWVPEEASGEASEIPVPQGTELSPSRPGGGSMQTEPARPSNFLSASSPLPASAKGQQPADVTGTALPRVGPVRPTGQDWNHTPQKTDHPSALLRDPPEPGSPRISSLRPQGLSNPSTLSAQPQLSRSHSSGSVLPLGELEGRRSTRDRRSPAEPEGGPASEGAARPLPRFNSVPLTDTGHERQSEGSFSPQLQESVFHLLVPSVILVLLAVGGLLFYRWRRRSHQEPQRADSPLEQPEGSPLTQDDRQVELPV
AML blasts [1]; [13]
  Mean Value of CRs, p-Akt: −0.16
  Mean Value of NRs, p-Akt: 0.05
AML blasts [1]; [3]
  Mean Value of CRs, p-CREB: 1.26
  Mean Value of CRs, p-Plcγ2: 1.79
  Mean Value of NRs, p-CREB: 1.76
  Mean Value of NRs, p-Plcγ2: 2.8
AML blasts [1]; [10]
  Mean Value of CRs: 1.86
  Mean Value of NRs: 2.81
